According to US8507562B2, “Synthesis of (1)-beta-elemene, (-)-beta-elemenal, (-)-beta-elemenol, (-)-beta-elemene fluoride and their analogues, intermediates, and composition and uses thereof” (HYWE Pharmaceuticals, Inc., priority 2004, dated 2013):
Like-named read-outs stand apart in the source and are kept apart here.

Tests used:
[1] = Blood brain barrier passage of 3H labeled Elemene; format: in vivo, experimental animals; conditions: own animal experiment, tritium labeled, parent, derivatives and/or metabolites not distinguished
From the text: But no careful experiments were done to figure out if it is beta-elemene itself, or its derivatives, or its metabolite or a combination of the above, which pass the BBB. Thus how Elemene works to treat brain tumor is unknown.

[2] = tested on: Non-small-cell lung cancer (NSCLC) cell lines; assay: Mechanism in NSCLC cells
[3] = tested on: human glioma G-422 (xenograph under skin); assay: Xenograph under skin, injection directly into tumor; format: in vivo, mice; conditions: for Tumor Weight X ± SD: in g (unit assumed)
From the text: The mice were killed after 3 weeks.

[4] = tested on: Colon Cancer Cells Caco-2; assay: MTS cell viability assay; format: cell-based, human; conditions: combinations with Elemene 100 μg/ml, n = 8
Protocol: Cells were maintained at 37° C. in a humidified atmosphere including 5% CO2. […] Drugs were dissolved in 100% DMSO and then diluted in medium for experiments.

[5] = tested on: human prostate cancer PC-3M
[6] = tested on: Colon Cancer Cells HCT-116; assay: MTS cell viability assay; format: cell-based, human; conditions: combinations with Elemene 160 μg/ml, n = 8

(−)-Beta-elemene
Inhibition Rate % (human liver cancer QGY; 12.5 mg/kg/time iv × 10 bid): 30.92% | Tumor Weight (g) X ± SD (human liver cancer QGY; 12.5 mg/kg/time iv × 10 bid): 1.43 ± 0.12 g | Inhibition Rate % (human liver cancer QGY; 25 mg/kg/time iv × 10 bid): 37.20% | Tumor Weight (g) X ± SD (human liver cancer QGY; 25 mg/kg/time iv × 10 bid): 1.30 ± 0.18 g | Inhibition Rate % (human liver cancer QGY; 50 mg/kg/time iv × 10 bid): 45.89% | Tumor Weight (g) X ± SD (human liver cancer QGY; 50 mg/kg/time iv × 10 bid): 1.12 ± 0.19 g | blood brain barrier (BBB) passage [1]: pass the blood-brain-barrier | blood brain barrier (BBB) passage ([1]; listed as beta-elemene): can pass blood brain barrier | apoptosis [2]: triggered apoptosis | cell cycle effect [2]: arrest NSCLC cells at cell cycle G2-M phase | Inhibition Rate % ([3]; 15 mg/kg it × 10 qd): 32.00% | Tumor Weight X ± SD ([3]; 15 mg/kg it × 10 qd): 1.53 ± 0.27 | Inhibition Rate % ([3]; 30 mg/kg it × 10 qd): 47.11% | Tumor Weight X ± SD ([3]; 30 mg/kg it × 10 qd): 1.19 ± 0.55 | Inhibition Rate % ([3]; 60 mg/kg it × 10 qd): 60.89% | Tumor Weight X ± SD ([3]; 60 mg/kg it × 10 qd): 0.88 ± 0.24 | IC50 ([4]; Caco-2, 4 hr/24 hr × 2): 91.0 ± 7.55 µg/mL | IC50 ([4]; Caco-2, 4 hr/24 hr × 3): 81.1 ± 10.3 µg/mL | IC50 ([4]; Caco-2, 4 hr/24 hr): 108 ± 2.55 µg/mL | IC50 ([4]; Caco-2, 4 hr): 171 ± 16.0 µg/mL | IC50 ([4]; Caco-2, 8 hr): 167 ± 32.9 µg/mL | IC50 ([4]; Caco-2, 12 hr): 104 ± 10.7 µg/mL | IC50 ([4]; Caco-2, 24 hr): 107 ± 6.00 µg/mL | IC50 ([4]; Caco-2, 48 hr): 91.0 ± 7.51 µg/mL | IC50 ([4]; Caco-2, 72 hr): 89.1 ± 9.08 µg/mL | Inhibition Rate % ([5]; 12.5 mg/kg/time iv × 10 bid): 27.95% | Tumor Weight (g) X ± SD ([5]; 12.5 mg/kg/time iv × 10 bid): 1.16 ± 0.12 g | Inhibition Rate % ([5]; 25 mg/kg/time iv × 10 bid): 34.78% | Tumor Weight (g) X ± SD ([5]; 25 mg/kg/time iv × 10 bid): 1.05 ± 0.07 g | Inhibition Rate % ([5]; 50 mg/kg/time iv × 10 bid): 46.58% | Tumor Weight (g) X ± SD ([5]; 50 mg/kg/time iv × 10 bid): 0.86 ± 0.12 g | IC50 ([6]; HCT-116, 4 hr/24 hr × 2): 203 ± 23.1 µg/mL | IC50 ([6]; HCT-116, 4 hr/24 hr × 3): 165 ± 22.0 µg/mL | IC50 ([6]; HCT-116, 4 hr/24 hr): 230 ± 25.2 µg/mL | IC50 ([6]; HCT-116, 4 hr): 363 ± 45.9 µg/mL | IC50 ([6]; HCT-116, 8 hr): 206 ± 24.2 µg/mL | IC50 ([6]; HCT-116, 12 hr): 201 ± 12.0 µg/mL | IC50 ([6]; HCT-116, 24 hr): 184 ± 26.1 µg/mL | IC50 ([6]; HCT-116, 48 hr): 163 ± 21.8 µg/mL | IC50 ([6]; HCT-116, 72 hr): 157 ± 22.0 µg/mL
